# Measurements: patent US20210253511A1, “COMPOUNDS AND USES FOR THE TREATMENT AND PREVENTION OF DISEASES AND CONDITIONS ASSOCIATE WITH OR AGGREVATED BY IMPARED MITOPHAGY” (Yissum Research Development Company of The Hebrew …, priority 2018, published 2021)
# System: C. elegans worms in 200 mM paraquat (PQ)
# Assay: Paraquat survival assay
# Assay type: in vivo
# Conditions: 200 mM PQ; for protective effect on worms' survival in PQ (figure legend): concentration not given, log-rank test
# Protocol: C. elegans strains were grown at 21° C. on nematode growth media (NGM) agar plates containing diamines or vehicle as a control. The NGM agar plates were prepared as described in L. Livshits, E. Gross, A method for measuring sulfide toxicity in the nematode Caenorhabditis elegans, MethodsX 4 (2017) 250-255. A suspension of 3 g sodium chloride (NaCl), 20 g Bacto agar, and 2.5 g of Bacto peptone in 1 L of double distilled water (DDW) was mixed and autoclaved. Then, the medium was cooled to 55° C. and supplemented with 1 ml of 100 mM CaCl2), 1 ml of 100 mM MgSO4, 25 ml of 1 M potassium phosphate buffer pH 6, and 1 ml of 5 mg/ml cholesterol (the cholesterol was dissolved in ethanol). Diamines or DDW (vehicle) were added to the NGM-agar solution. For RNAi NGM-agar plates, Isopropyl β-D-1-thiogalactopyranoside (IPTG) and ampicillin were added to a final concentration of 1 mM and 100 μg/ml, respectively. The NGM-agar solution was thoroughly vortex mixed and immediately poured into 35 mm petri dish (4 ml per plate). NGM-plates were covered with aluminum foil and dried for 24 h at room temperature (RT). 24 h before the experiment, plates were seeded with 100 μl bacteria (OD600=0.6, OP50 or HT115(DE3)). The seeded plates were covered with aluminum foil and dried for 24 h at RT.
# To get synchronized C. elegans larvae, the method described in W. B. Wood, The Nematode Caenorhabditis Elegans, Cold Spring Harbor Laboratory 1988, was performed. In brief, hypochlorite/NaOH solution was made by mixing 1 ml of 5% solution of sodium hypochlorite, 800 μl of 2.5 N NaOH and 2.2 ml DDW to final concentrations of 0.5 N NaOH and 1.25% sodium hypochlorite. M9 buffer was made by dissolving 3 g KH2PO4, 6 g Na2HPO4, 5 g NaCl and 1 ml of MgSO4 from 1M stock in 1 litter of DDW. The solution pH was adjusted to 7 and sterilizes by filtration (with a 0.2 µm filter bottle). Gravid hermaphrodites was washed from the NGM plates into a 15 ml tube with M9 buffer and centrifuged for 2 min at 900×g, RT. Liquid was removed until 2 ml worms' suspension was left and added 2 ml of hypochlorite/NaOH solution. A 5 ml syringe with a 21-gauge needle was used to aspirate the worm suspension back and forth several times. After 3 min it was observed the state of the worms using a dissecting stereoscope. At this stage, approximately 50% of worms should appear broken and many of the embryos should float in the solution. The embryos were immediately sedimented using centrifugation (1690×g for 2 min) and carefully removed the supernatant and add 10 ml of M9 buffer. This washing step was repeated three additional times. The supernatant was removed until 2 ml remains and rotated the tube for 16 h at RT. The hatched L larvae were collected by centrifugation (1690×g for 3 min) and put ˜80 L in each seeded NGM assay plate. Grow the L1 (Day 1) for 3 days until they become young adults (Day 3).
# [1] = tested at 0.0625 mM and 0.25 mM, not split
# [2] = compound at 0.25 mM, vs control worms
# [3] = compound at 4 mM, vs control worms
SMILES,protective effect on worms' survival in PQ (figure legend),survival of worms in paraquat [1],"survival of worms in paraquat (compound at 0.0625 mM, vs control worms)",survival of worms in paraquat [2],survival of worms in paraquat [3]
"N=C(N)NCCCCCCCCNC(=N)N [1,8-diguanidinooctane]",significant protective effect,significantly improved the survival of worms in PQ,,,
"N=C(N)NCCCCCCNC(=N)N [1,6-Diguanidinohexane]",significant protective effect,,significantly improve the survival of worms,significantly improve the survival of worms,
"NOCCCCCCCCON [1,8-diaminooxy-octane]",significant protective effect,significantly improved the survival of worms in PQ,,,
"NCCCCCCCCCCN [1,10-Diaminodecane]",,,,significantly improved worms' survival,significantly decreased worms' survival
"NOCCCCCCCCCON [1,9-diaminooxy-nonane]",significant protective effect,significantly improved the survival of worms in PQ,,,
"NCCCCCCN [1,6-Diaminohexane]",,,,did not have any effect,did not have any effect
"NCCCCCCCCCCCCN [1,12-Diaminododecane]",,,,did not,significantly improved their survival
